Data reported in patent US10611740B2, “Aryl dihydro-2H-benzo[b][1,4]oxazine sulfonamide and related compounds for use as agonists of RORγ and the treatment of disease” (Lycera Corporation, priority 2015, dated 2020).

What was measured:
RORγ-LBD = target: T1, RORγ-LBD (Homo sapiens, UniProt P51449); test: RORγ-Ligand Binding Domain (LBD) TR-FRET Assay; type: biochemical;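 on TR-FRET Assay Max Response: 665/615 nm ratio relative to signal without ursolic acid or compound set at 100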
T1 construct: made in house; host or cells: SF9 cells (baculovirus)
T1 sequence (P51449 269-508 limits assumed): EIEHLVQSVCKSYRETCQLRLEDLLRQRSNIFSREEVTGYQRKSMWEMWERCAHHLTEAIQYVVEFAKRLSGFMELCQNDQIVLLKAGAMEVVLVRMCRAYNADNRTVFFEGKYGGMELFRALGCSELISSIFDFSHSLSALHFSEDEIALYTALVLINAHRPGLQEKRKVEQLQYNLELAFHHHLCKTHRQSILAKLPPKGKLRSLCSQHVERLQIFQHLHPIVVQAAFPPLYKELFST
How it was run: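 His-tagged RORγ-LBD from SF9 baculovirus lysate, ~3 nM final, in 50 mM Tris pH 7.0, 50 mM KCl, 1 mM EDTA, 0.1 mM DTT, 0.01% BSA. Biotinylated SRC1 LXXLL peptide at 200 nM final with 2 μM ursolic acid; TR-FRET read-out, 1% DMSO final.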

Gal4-RORγ-LBD = target: T2, Gal4-RORγ-LBD (Homo sapiens, UniProt P51449); test: Gal4-RORγ Luciferase Reporter Assay in HEK-293T Cells; type: cell-based; conditions: HEK-293 cells
T2 construct: expressed in transfected cells; host or cells: HEK-293 cells (pcDNA3.1neo plasmid)
T2 sequence (P51449 269-508 limits assumed): T1 sequence (P51449 269-508 limits assumed)
How it was run: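 HEK-293 cells were transiently co-transfected with Gal4-RORγ-LBD and pGL4.31 Gal4-luciferase, with ursolic acid added at 2 μM final. Compounds were incubated overnight at 37° C. in 0.2% DMSO and luminescence read with One-Glo. Max Response is the upper plateau of a 4-parameter logistic fit, with signal lacking ursolic acid or compound set to 100.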

[1] = luciferase reporter, with 2 μM ursolic acid

EC50 (RORγ-LBD) [µM]	EC50 (Gal4-RORγ-LBD; [1]) [µM]	EC50 (Gal4-RORγ-LBD; 2 μM ursolic acid) [µM]	SMILES	TR-FRET Assay Max Response (RORγ-LBD)	Gal4-RORγ Assay Max Response (Gal4-RORγ-LBD; [1])	Gal4-RORγ Assay Max Response (Gal4-RORγ-LBD; 2 μM ursolic acid)
< 0.5	0.5 to 5	–	COc1cncc(-c2ccc3c(c2)N(S(=O)(=O)c2cccc(C(F)(F)F)c2)C[C@H](CCC(=O)O)O3)n1 [Compound 4Y, (S)-3-(6-(6-methoxypyrazin-2-yl)-4-((3-(trifluoromethyl)-phenyl)sulfonyl)-3,4-dihydro-2H-benzo[b][1,4]oxazin-2-yl)propanoic acid]	**** (The symbol “****” indicates a value greater than 200)	* (The symbol “*” indicates a value in the range of 25 to 90)	–
< 0.5	–	< 0.5	O=C(O)C1(C[C@H]2CN(S(=O)(=O)c3cccc(C(F)(F)F)c3)c3cc(-c4cc(F)cc(F)c4)ccc3O2)CCC1 [Compound 32BD, (S)-1-((6-(3,5-difluorophenyl)-4-((3-(trifluoromethyl)phenyl)-sulfonyl)-3,4-dihydro-2H-benzo[b][1,4]oxazin-2-yl)methyl)cyclobutane-1-carboxylic acid]	** (The symbol “**” indicates a value in the range of greater than 90 to 150)	–	** (The symbol “**” indicates a value in the range of greater than 90 to 150)
< 0.5	0.5 to 5	–	CC(C)(CO)C(=O)NC[C@H]1CN(S(=O)(=O)c2cccc(C(F)(F)F)c2)c2cc(-c3cccc(C(F)(F)F)n3)ccc2O1 [Compound 30BI, (S)-3-hydroxy-2,2-dimethyl-N-((4-((3-(trifluoromethyl)-phenyl)sulfonyl)-6-(6-(trifluoromethyl)pyridin-2-yl)-3,4-dihydro-2H-benzo[b][1,4]-oxazin-2-yl)methyl)-propanamide]	*** (The symbol “***” indicates a value in the range of greater than 150 to 200)	* (The symbol “*” indicates a value in the range of 25 to 90)	–
< 0.5	< 0.5	–	O=C(CC[C@H]1CN(S(=O)(=O)c2cccc(C(F)(F)F)c2)c2cc(-c3cccc(Cl)c3)ccc2O1)N1CCOCC1 [Compound 23B, (S)-3-(6-(3-chlorophenyl)-4-((3-(trifluoromethyl)phenyl)sulfonyl)-3,4-dihydro-2H-benzo[b][1,4]-oxazin-2-yl)-1-morpholino-propan-1-one]	**** (The symbol “****” indicates a value greater than 200)	** (The symbol “**” indicates a value in the range of greater than 90 to 150)	–
< 0.5	< 0.5	–	Cc1ccccc1-c1ccc2c(c1)N(S(=O)(=O)c1cccc(C(F)(F)F)c1)C[C@H](CCC(=O)O)O2 [Compound 2P, (S)-3-(6-(o-tolyl)-4-((3-(trifluoromethyl)phenyl)-sulfonyl)-3,4-dihydro-2H-benzo[b][1,4]oxazin-2-yl)propanoic acid]	*** (The symbol “***” indicates a value in the range of greater than 150 to 200)	*** (The symbol “***” indicates a value in the range of greater than 150 to 200)	–
< 0.5	< 0.5	–	COc1cc(S(=O)(=O)N2C[C@H](CCNC(=O)C(C)(C)O)Oc3ccc(-c4cccc(C(F)(F)F)n4)cc32)ccc1F [Compound 30O, (S)-N-(2-(4-((4-fluoro-3-methoxyphenyl)sulfonyl)-6-(6-(trifluoromethyl)pyridin-2-yl)-3,4-dihydro-2H-benzo[b][1,4]-oxazin-2-yl)ethyl)-2-hydroxy-2-methylpropanamide]	**** (The symbol “****” indicates a value greater than 200)	** (The symbol “**” indicates a value in the range of greater than 90 to 150)	–
< 0.5	–	0.5 to 5	CC(C)(C[C@@H]1CN(S(=O)(=O)c2cccc(C(F)(F)F)c2)c2cc(-c3cc(F)cc(Cl)c3F)ccc2O1)C(=O)O [Compound 32AO, (R)-3-(6-(3-chloro-2,5-difluoro-phenyl)-4-((3-(trifluoromethyl)-phenyl)sulfonyl)-3,4-dihydro-2H-benzo[b][1,4]oxazin-2-yl)-2,2-dimethylpropanoic acid]	** (The symbol “**” indicates a value in the range of greater than 90 to 150)	–	* (The symbol “*” indicates a value in the range of 25 to 90)
< 0.5	< 0.5	–	O=C(O)CC[C@H]1CN(S(=O)(=O)c2cccc(C(F)(F)F)c2)c2cc(-c3cccc(C(F)(F)F)n3)ccc2O1 [Compound 4A, (S)-3-(4-((3-(trifluoromethyl)-phenyl)sulfonyl)-6-(6-(trifluoromethyl)pyridin-2-yl)-3,4-dihydro-2H-benzo[b][1,4]oxazin-2-yl)propanoic acid]	*** (The symbol “***” indicates a value in the range of greater than 150 to 200)	*** (The symbol “***” indicates a value in the range of greater than 150 to 200)	–
< 0.5	< 0.5	–	CC(C)c1cccc(S(=O)(=O)N2C[C@H](CCNC(=O)C(C)(C)O)Oc3ccc(-c4cccc(N(C)C)n4)cc32)c1 [Compound 30G, (S)-N-(2-(6-(6-(dimethylamino)-pyridin-2-yl)-4-((3-isopropyl-phenyl)sulfonyl)-3.,4-dihydro-2H-benzo[b][1,4]oxazin-2-yl)ethyl)-2-hydroxy-2-methylpropanamide]	**** (The symbol “****” indicates a value greater than 200)	* (The symbol “*” indicates a value in the range of 25 to 90)	–
< 0.5	0.5 to 5	–	CCOc1ncc(C(F)(F)F)cc1S(=O)(=O)N1C[C@H](CCC(=O)O)Oc2ccc(-c3cccc(Cl)c3)cc21 [Compound 6D, (S)-3-(6-(3-chlorophenyl)-4-((2-ethoxy-5-(trifluoromethyl)-pyridin-3-yl)sulfonyl)-3,4-dihydro-2H-benzo[b][1,4]-oxazin-2-yl)propanoic acid]	**** (The symbol “****” indicates a value greater than 200)	** (The symbol “**” indicates a value in the range of greater than 90 to 150)	–
< 0.5	–	< 0.5	O=C(O)C1(C[C@H]2CN(S(=O)(=O)c3cccc(C(F)(F)F)c3)c3cc(-c4cccc(Cl)c4)ccc3O2)CCOCC1 [Compound 78A, (S)-4-((6-(3-chlorophenyl)-4-((3-(trifluoromethyl)phenyl)sulfonyl)-3,4-dihydro-2H-benzo[b][1,4]-oxazin-2-yl)methyl)tetrahydro-2H-pyran-4-carboxylic acid]	** (The symbol “**” indicates a value in the range of greater than 90 to 150)	–	** (The symbol “**” indicates a value in the range of greater than 90 to 150)
< 0.5	< 0.5	–	COc1cc(-c2ccc3c(c2)N(S(=O)(=O)c2cccc(C(F)(F)F)c2)C[C@H](CCc2n[nH]c(=O)o2)O3)nc(N(C)C)c1 [Compound 28H, (S)-5-(2-(6-(6-(dimethylamino)-4-methoxypyridin-2-yl)-4-((3-(trifluoromethyl)phenyl)sulfonyl)-3,4-dihydro-2H-benzo[b][1,4]-oxazin-2-yl)ethyl)-1,3,4-oxadiazol-2(3H)-one]	**** (The symbol “****” indicates a value greater than 200)	* (The symbol “*” indicates a value in the range of 25 to 90)	–
< 0.5	–	< 0.5	CC1(C(=O)O)CC(C[C@H]2CN(S(=O)(=O)c3cccc(C(F)(F)F)c3)c3cc(-c4cccc(C(F)(F)F)n4)ccc3O2)C1 (stereo partly drawn) [Compound 60O, (1R,3s)-1-methyl-3-(((S)-4-((3-(trifluoromethyl)phenyl)-sulfonyl)-6-(6-(trifluoro-methyl)pyridin-2-yl)-3,4-dihydro-2H-benzo[b][1,4]-oxazin-2-yl)methyl)cyclobutane-1-carboxylic acid]	*** (The symbol “***” indicates a value in the range of greater than 150 to 200)	–	** (The symbol “**” indicates a value in the range of greater than 90 to 150)
< 0.5	–	< 0.5	CC(=O)N[C@H]1C[C@H](C[C@H]2CN(S(=O)(=O)c3cccc(C(F)(F)F)c3)c3cc(-c4cc(F)cc(OC(F)F)c4)ccc3O2)C1 [Compound 60D, N-((1S,3r)-3-(((S)-6-(3-(difluoro-methoxy)-5-fluoro-phenyl)-4-((3-(trifluoro-methyl)-phenyl)sulfonyl)-3,4-dihydro-2H-benzo[b][1,4]-oxazin-2-yl)methyl)cyclo-butyl)-acetamide]	*** (The symbol “***” indicates a value in the range of greater than 150 to 200)	–	* (The symbol “*” indicates a value in the range of 25 to 90)
< 0.5	< 0.5	–	O=C(O)CC[C@H]1CN(S(=O)(=O)c2cccc(C(F)(F)F)c2)c2cc(-c3ccc(Cl)c(Cl)c3)ccc2O1 [Compound 2E, (S)-3-(6-(3,4-dichlorophenyl)-4-((3-(trifluoromethyl)phenyl)-sulfonyl)-3,4-dihydro-2H-benzo[b][1,4]oxazin-2-yl)propanoic acid]	*** (The symbol “***” indicates a value in the range of greater than 150 to 200)	** (The symbol “**” indicates a value in the range of greater than 90 to 150)	–
